“Also recorded” adds a separate entry of the source. Where two headings read alike, the source gives them in different places.
Assays:
[1] = tested on: r(CGG)12-DGCR8Δ complex; assay: TR-FRET protein displacement assay; assay type: biochemical; details: for Percentage displacement at 25 μM: 25 μM compound, DGCR8Δ displaced from r(CGG)12; for inhibition of the r(CGG)12-DGCR8Δ interaction, in words: comparison within the tested compounds
[2] = biological target: RNA containing one 5′CGG/3′GGC motif; assay: RNA-binding assay via Hoechst 33258 dye displacement; details: RNA with one 5′CGG/3′GGC motif; Table 1
Protocol: Dissociation constants were determined using an in-solution, fluorescence-based assay (37-45). RNA was annealed in DNA buffer (8 mM Na2HPO4, pH7.0, 185 mM NaCl, 0.1 mM EDTA, 40 μg/mL BSA) at 60° C. for 5 min and allowed to slowly cool to room temperature. The annealed RNA was then titrated into DNA buffer containing 1000 nM Hoechst 33258. Fluorescence signal was recorded using a Bio-Tek FLX-800 plate reader, which was equipped with excitation filter at 360/40 nm and emission filter at 460/40 nm. The change in fluorescence intensity as a function of RNA concentration was fit to the following equation (eq. 3): (37, 46) I=I0+0.5Δϵ{([Ht0]+[RNA]0+Kt)−(([Ht]0+[RNA]0+Kt)^2−4[Ht]0[RNA]0)^0.5} (eq. 3) where I is the observed fluorescence intensity, I0 is the fluorescence intensity in the absence of RNA, Δϵ is the difference between the fluorescence intensity in the absence of RNA and in the presence of infinite RNA concentration and is in units of M^−1. […]
Ligands 1a-1d were then added to compete for binding to the RNA (1 μM) in presence of Hoechst 33258 (1 μM). Reduction in fluorescence of Hoechst 33258 was measured using a Bio-Tek FLX-800 plate reader as a function of ligand concentration (1a-1d) and was fit to the following equation (eq. 4): (41) […]

[3] = tested on: DGCR8Δ; assay: Competition dialysis; assay type: binding; details: 0.7 μM ligand, 2 μM protein
Protocol: (§1) Competition dialysis was completed as previously described (31). Briefly, 2 μM RNA or protein was transferred into Slide-a-Lyzer MINI dialysis units with a molecular weight cut-off of 2,000 (Thermo Scientific), and the units were placed into a solution of 0.7 μM ligand. Two blank units containing only buffer were used to monitor equilibration by checking the absorbance at the peak wavelength. After the blank units reached equilibrium, sodium dodecyl sulfate (SDS) was added to a final concentration of 1%, and the absorbance was measured. This absorbance was used to determine total ligand concentration (Ct). The concentration of the dialysate (free ligand concentration. Cf) was determined analogously. The bound ligand concentration (Cb) was then determined using equation 2: Cb=Ct−Cf (eq. 2) where Cb, Ct, and Cf are concentrations of bound, total, and free ligand, respectively. RNA-Binding Assays Via Dye Displacement.

[4] = tested on: fully paired RNAs; assay: Competition dialysis; assay type: binding; details: 0.7 μM ligand, 2 μM RNA
Protocol: as §1

[5] = tested on: r(CGG)12; assay: Competition dialysis; assay type: binding; details: 0.7 μM ligand, 2 μM RNA
Protocol: as §1

[6] = tested on: SMN2 exon 7 alternative splicing; assay: SMN2 mini-gene splicing in COS7 cells (FXTAS model), RT-PCR; assay type: cell-based; details: for SMN2 pre-mRNA splicing defects, in words: figure legends
From the text: Encouraged by our TR-FRET assay results, we tested the bioactivity of the optimal dimeric small molecule, 2E-5NMe, by using a FXTAS cellular model. In the FXTAS cell model, r(CGG)^exp binds and sequesters Sam68, a pre-mRNA splicing regulator. Sequestration of Sam68 causes its inactivation and dysregulation of alternative pre-mRNA splicing. In particular, the alternative splicing of exon 7 of the survival motor neuron-2 pre-mRNA (SMN2; involved in maintenance of motor neurons and mRNA processing) is dysregulated. Exon 7 is included too frequently when r(CGG)^exp is expressed, ˜70% of time as compared to normal cells in which exon 7 has an inclusion rate of only ˜40% (FIG. 14). Experiments were completed as previously described. Briefly. COS7 cells were co-transfected with plasmids expressing an SMN2 alternative splicing reporter and r(CGG)60. The transfection cocktail was removed, and the cells were incubated with fresh medium containing serially diluted concentrations of compound for 24 h. Total RNA was harvested, and splicing patterns were analyzed via RT-PCR. Remarkably, at […] concentration, 2E-5NMe restores alternative pre-mRNA splicing patterns back to the wild type. The monomer 1a required 10 times higher concentration for the same effect.
(§2) In order to determine if a improves FXTAS-associated splicing defects in vivo, a cell culture model system was used. Briefly. COS7 cells were grown as monolayers in 24- or 96-well plates in growth medium (1×DMEM, 10% FBS, and 1× GlutaMax (Invitrogen)). After the cells reached 90-95% confluency, they were transfected using Lipofectamine 2000 reagent (Invitrogen) or PugenHD (Roche) per the manufacturer's standard protocol. Equal amounts of a plasmid expressing a 60 CGG repeats and a mini-gene of interest (SMN2 or Bcl-x) were used. Approximately 5 h post-transfection, the transfection cocktail was removed and replaced with growth medium containing 1a. After 16-24 h, the cells were lysed in the plate, and total RNA was harvested with a Qiagen RNAEasy kit or a GenElute kit (Sigma). An on-column DNA digestion was completed per the manufacturer's recommended protocol.
(§3) A sample of RNA was subjected to reverse transcription-polymerase chain reaction (RT-PCR) using 5 units of AMV Reverse Transcriptase from Life Sciences or Superscript II (Invitrogen). Approximately 300 ng were reverse transcribed, and 150 ng were subjected to PCR. RT-PCR products were observed after 25-30 cycles of: 95° C. for 1 min: 55° C. for 1 min; 72° C. for 2 min and a final extension at 72° C. for 10 min. The products were separated by polyacrylamide or agarose gel electrophoresis, stained, and imaged using a Typhoon phosphorimager. The splicing isoforms were quantified using QuantityOne software (BioRad). Table S-2 lists the RT-PCR primers used for each mini-gene construct.

[7] = tested on: Bcl-x exon 2 alternative splicing; assay: Bcl-x mini-gene splicing in COS7 cells (FXTAS model), RT-PCR; assay type: cell-based; details: for Bcl-x splicing: COS7 cells expressing r(CGG)60
Protocol: as §2, §3

[8] = tested on: PLEKHH2 alternative splicing; assay: PLEKHH2 mini-gene control splicing in COS7 cells; assay type: cell-based; details: for effect on PLEKHH2 splicing: no concentration stated, not regulated by Sam68
From the text: (§4) Control experiments were also completed to determine the specificity of 1a; that is if it affects the splicing of RNAs not controlled by Sam68. In these experiments, a PLEKHH2 (15) or cardiac troponin T (cTNT) (32) mini-gene was used, as their alternative splicing is not regulated by Sam68. […] Thus, the effect of 1a on pre-mRNA splicing appears to be specific to the splicing of pre-mRNAs regulated by Sam68.

[9] = tested on: cTNT alternative splicing; assay: cTNT mini-gene control splicing in COS7 cells; assay type: cell-based; details: for effect on cTNT splicing: no concentration stated, not regulated by Sam68
From the text: as §4

[10] = tested on: r(CGG)^exp nuclear foci; assay: Nuclear foci by fluorescence in situ hybridization (FISH) in COS7 cells; assay type: cell-based; details: COS7 cells transfected with r(CGG)60 and GFP
Protocol: FISH experiments were completed as previously described. (8) Briefly, COS7 cells were plated onto glass coverslips and co-transfected with plasmids encoding for r(CGG)60 and GFP. The cells were fixed in 4% paraformaldehyde in PBS (pH 7.4) for 15 min and washed three times with PBS. Then, they were permeabilized with 0.5% Triton X-100 in PBS. Prior to addition of the FISH probe, the cells were pre-hybridized in a 2×SSC buffer containing 40% formamide and 10 mg/mL BSA for 30 min. The coverslips were hybridized for 2 h in 2×SSC buffer supplemented with 40% formamide, 2 mM vanadyl ribonucleoside, 60 μg/mL tRNA, 30 μg/mL BSA, and 0.75 μg (CCG)8-Cy3 DNA oligonucleotide probe. The cells were washed twice in 2×SSC containing 50% formamide and then twice in 2×SSC. Following FISH the coverslips were incubated for 10 min in 2×SSC containing 1 μg/mL DAPI and rinsed twice in 2×SSC. The coverslips were then mounted in Pro-Long media and examined using either a simple fluorescence microscope (Leica) or a Leica DM4000 B confocal microscope.

[11] = disruption of r(CGG)12-DGCR8Δ complex, Table 1, read-out: IC50
[12] = read-out: IC50 for disruption of r(CGG)12-DGCR8Δ complex / inhibition of protein binding
[13] = 62 times of competitor tRNA, Table 2, read-out: IC50 at the presence of 62 times of competitor, tRNA
[14] = inhibition of r(CGG)12-DGCR8Δ complex, Table 2, read-out: IC50
[15] = cells that do not express r(CGG)60
[16] = 500 μM, splicing not regulated by Sam68

Row | SMILES | Percentage displacement at 25 μM ([1]; Table 1) [%] | inhibition of the r(CGG)12-DGCR8Δ interaction, in words [1] | IC50 [1, 11] [µM] | IC50 [1, 12] [µM] | r(CGG)12-DGCR8Δ complex formation, % ([1]; 1 μM compound, Table 2) [%] | r(CGG)12-DGCR8Δ complex formation, % ([1]; 10 μM compound, Table 2) [%] | IC50 [1, 13] [µM] | IC50 [1, 14] [µM] | Kd [2] [µM] | SMN2 pre-mRNA splicing defects, in words ([6]; COS7 cells expressing r(CGG)60) | effect on PLEKHH2 splicing [8] | effect on cTNT splicing [9] | other results
1 | Cc1c2ccncc2c(C)c2c1[nH]c1ccc(O)cc12 [1e, 9-hydroxyellipticine] | 46 ± 5 | markedly decreased | ~25 | ~25 |  |  |  |  |  |  |  |  | 
2 | Cc1c2cc[n+](CCN3CCCCC3)cc2c(C)c2c1[nH]c1ccc(O)cc12 [1a, 9-hydroxy-5,11-dimethyl-2-(2-(piperidin-1-yl)ethyl)-6H-pyrido[4,3-b]carbazol-2-ium] | 85 ± 1 |  | 13 ± 0.4 | 12 | 66.9 ± 0.7 | 20.4 ± 0.8 | 20.1 | 3.84 ± 0.3 | 0.076 ± 0.004 | improves SMN2 pre-mRNA splicing defects | not to effect splicing; also recorded: non-effect | not to effect splicing; also recorded: non-effect | binding to DGCR8Δ [3]: very little binding; amount of ligand partitioned into fully paired RNAs relative to r(CGG)12 [4]: less than half; binding to r(CGG)12 [5]: binds tightly; SMN2 pre-mRNA splicing level ([6]; 100 μM, COS7 cells expressing r(CGG)60): approximately 70 % of wild type; SMN2 pre-mRNA splicing ([6]; 500 μM, COS7 cells expressing r(CGG)60): restores pre-mRNA splicing to levels wild type; concentration at which improvement of SMN2 splicing defects can be observed ([6]; COS7 cells expressing r(CGG)60): 20 µM; concentration required for the same effect relative to 2E-5NMe ([6]; SMN2 splicing restored to wild type): 10 times; effect on SMN2 splicing [6, 15]: No statistically significant effect; Bcl-x splicing ([7]; 100 μM): Statistically significant improvement; Bcl-x splicing ([7]; 500 μM): restoration of wild type splicing patterns; Bcl-x pre-mRNA splicing defects, in words ([7]; COS7 cells expressing 60 r(CGG) repeats): improves Bcl-x pre-mRNA splicing defects; effect on Bcl-x splicing [7, 15]: No statistically significant effect; effect on PLEKHH2 alternative splicing [8, 16]: did not affect; effect on cTNT alternative splicing [9, 16]: did not affect; size and number of r(CGG)^exp nuclear foci / aggregates [10]: reduces the size and the number of foci; also recorded: reduced formation of r(CGG)^exp aggregation; also recorded: decreases r(CGG)^exp-protein aggregates
3 | Cc1c2cc[n+](C)cc2c(C)c2c1[nH]c1ccc(O)cc12 [1d, elliptinium] | 87 ± 5 |  | 7 ± 0.2 |  |  |  |  |  | 0.05 ± 0.018 |  |  |  | 
4 | Cc1c2cc[n+](Cc3cn(CCCNCC(=O)N(C)C(C)C(=O)N(C)C(C)C(=O)N(C)C(C)C(=O)N(C)C(C)C(=O)N(C)C(C)C(=O)N(CCCn4cc(C[n+]5ccc6c(C)c7[nH]c8ccc(O)cc8c7c(C)c6c5)nn4)CC(N)=O)nn3)cc2c(C)c2c1[nH]c1ccc(O)cc12 (stereo not shown) [2E-5NMe] |  | the most potent compound |  |  | 39.6 ± 0.6 | 5.0 ± 2.6 | 3.52 | 0.47 ± 0.08 |  | reduction of pro-mRNA splicing defects | does not affect | does not affect | potency relative to the monomer 1a ([1]; IC50 ratio): ~8 fold; r(CGG)12-DGCR8D complex inhibited ([1]; at 1 mM (so in the source)): 60%; r(CGG)12-DGCR8D complex inhibited ([1]; at 10 mM (so in the source)): 95%; concentration that restores alternative pre-mRNA splicing patterns back to the wild type ([6]; SMN2, COS7 cells with r(CGG)60, 24 h): 50 mM; effect on alternative splicing in healthy cells ([6]; cells without r(CGG)60): does not affect
